Results as given in ChEMBL document CHEMBL1201862, “PubChem BioAssay data set” (2004).
Calls of active or inactive are those of the source.

What was measured:
[1] = M. tuberculosis growth inhibition, HTS (AID 449762); format: functional
[2] = microbe, parasite or virus in culture; format: functional; conditions: Mycobacterium tuberculosis
[3] = molecular target: DNA damage-inducible transcript 3 protein (Mus musculus, UniProt P35639); format: functional, Cricetulus griseus
[4] = molecular target: Cytochrome P450 2C19 (Homo sapiens, UniProt P33261); test: qHTS Assay for Inhibitors and Substrates of Cytochrome P450 2C19. [Related pubchem assays: 410 ]; format: ADME; conditions: read-out: Potency
Chain of Cytochrome P450 2C19 (P33261 whole entry): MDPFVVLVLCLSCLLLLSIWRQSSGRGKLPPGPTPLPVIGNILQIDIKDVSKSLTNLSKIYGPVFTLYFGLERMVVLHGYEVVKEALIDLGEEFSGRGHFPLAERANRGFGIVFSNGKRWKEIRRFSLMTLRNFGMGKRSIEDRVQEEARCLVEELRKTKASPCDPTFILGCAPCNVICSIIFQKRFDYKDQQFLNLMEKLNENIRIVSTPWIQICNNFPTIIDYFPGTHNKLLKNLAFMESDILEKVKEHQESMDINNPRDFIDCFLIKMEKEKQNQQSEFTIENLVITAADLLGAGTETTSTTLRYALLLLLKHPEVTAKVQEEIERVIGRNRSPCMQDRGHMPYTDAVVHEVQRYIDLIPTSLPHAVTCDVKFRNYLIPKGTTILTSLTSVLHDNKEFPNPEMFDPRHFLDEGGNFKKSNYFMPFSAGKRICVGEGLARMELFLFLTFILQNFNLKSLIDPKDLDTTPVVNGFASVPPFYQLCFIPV

[5] = molecular target: Cytochrome P450 3A4 (Homo sapiens, UniProt P08684); conditions: Potency;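 further: confirmatory qHTS run detecting inhibitors and substrates of CYP3A4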
Chain of Cytochrome P450 3A4 (P08684 whole entry): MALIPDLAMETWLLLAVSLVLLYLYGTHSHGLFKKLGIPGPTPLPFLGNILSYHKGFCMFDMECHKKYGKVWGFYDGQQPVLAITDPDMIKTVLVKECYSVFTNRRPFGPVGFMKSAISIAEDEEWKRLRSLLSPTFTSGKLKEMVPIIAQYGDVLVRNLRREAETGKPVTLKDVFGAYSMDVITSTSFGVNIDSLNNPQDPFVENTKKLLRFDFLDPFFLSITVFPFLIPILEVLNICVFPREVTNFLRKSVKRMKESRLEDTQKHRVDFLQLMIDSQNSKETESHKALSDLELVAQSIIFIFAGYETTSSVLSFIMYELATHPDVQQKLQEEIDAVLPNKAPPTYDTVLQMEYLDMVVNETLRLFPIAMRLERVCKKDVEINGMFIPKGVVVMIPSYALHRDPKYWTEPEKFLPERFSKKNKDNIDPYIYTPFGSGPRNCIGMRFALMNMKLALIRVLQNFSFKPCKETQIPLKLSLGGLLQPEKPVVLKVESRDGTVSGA

[6] = molecular target: T1, Tyrosine-protein phosphatase non-receptor type 7 (Homo sapiens, UniProt P35236); test: inhibitors of human HePTP phosphatase, […], biochemical, absorbance, leukemia target (AID 521); format: functional
T1 sequence (P35236 whole entry): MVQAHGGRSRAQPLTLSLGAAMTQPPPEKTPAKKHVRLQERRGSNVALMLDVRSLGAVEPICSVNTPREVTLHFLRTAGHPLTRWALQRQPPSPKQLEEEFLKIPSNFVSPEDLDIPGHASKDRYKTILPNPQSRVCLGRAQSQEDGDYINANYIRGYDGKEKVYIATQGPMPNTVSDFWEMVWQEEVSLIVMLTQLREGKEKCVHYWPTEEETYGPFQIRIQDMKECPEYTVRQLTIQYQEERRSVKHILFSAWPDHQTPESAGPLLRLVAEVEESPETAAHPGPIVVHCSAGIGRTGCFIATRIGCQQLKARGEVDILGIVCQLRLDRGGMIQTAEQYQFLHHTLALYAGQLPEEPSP

[7] = molecular target: T2, Protein Rev (Human immunodeficiency virus type 1 group M subtype B (isolate HXB2)(HIV-1), UniProt P04618); test: inhibitors of Rev binding to RRE RNA, dose response, biochemical, fluorescence polarization, HIV-1 (AID 434976); parameters: species or system Human immunodeficiency virus 1
T2 sequence (P04618 whole entry): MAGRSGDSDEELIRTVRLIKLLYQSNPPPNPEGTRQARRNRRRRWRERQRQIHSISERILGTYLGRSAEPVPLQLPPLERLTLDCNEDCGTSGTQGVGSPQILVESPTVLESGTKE

[8] = molecular target: T3, Female germline-specific tumor suppressor gld-1 (Caenorhabditis elegans, UniProt Q17339); test: inhibitors of GLD-1 binding to TGE RNA, dose response, biochemical, fluorescence polarization, C. elegans (AID 2802);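 further: fluorescence polarization of labeled TGE RNA bound by purified gld-1 protein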
T3 sequence (Q17339 whole entry): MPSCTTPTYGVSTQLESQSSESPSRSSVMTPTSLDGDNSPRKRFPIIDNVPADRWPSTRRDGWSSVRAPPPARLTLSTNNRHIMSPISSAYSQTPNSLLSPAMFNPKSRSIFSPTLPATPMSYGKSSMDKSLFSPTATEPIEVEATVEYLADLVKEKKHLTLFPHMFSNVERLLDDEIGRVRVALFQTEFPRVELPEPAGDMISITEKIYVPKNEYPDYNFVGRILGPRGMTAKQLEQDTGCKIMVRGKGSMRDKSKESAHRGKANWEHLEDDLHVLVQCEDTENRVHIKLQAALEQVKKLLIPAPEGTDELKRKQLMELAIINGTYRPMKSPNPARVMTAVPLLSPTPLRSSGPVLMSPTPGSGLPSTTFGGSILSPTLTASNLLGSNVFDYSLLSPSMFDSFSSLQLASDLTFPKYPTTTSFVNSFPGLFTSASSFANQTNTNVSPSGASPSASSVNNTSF

[9] = molecular target: 14-3-3 protein gamma (Homo sapiens, UniProt P61981); test: modulators of 14-3-3 gamma client binding – dose response (AID 711); format: functional
Chain of 14-3-3 protein gamma (P61981 whole entry): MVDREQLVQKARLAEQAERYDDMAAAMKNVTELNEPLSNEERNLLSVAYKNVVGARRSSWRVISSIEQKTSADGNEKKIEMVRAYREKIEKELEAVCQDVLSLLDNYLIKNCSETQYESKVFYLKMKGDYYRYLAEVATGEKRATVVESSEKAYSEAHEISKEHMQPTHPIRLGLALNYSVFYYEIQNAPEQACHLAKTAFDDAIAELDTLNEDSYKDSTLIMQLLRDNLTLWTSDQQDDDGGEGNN

[10] = molecular target: T4, Polyadenylate-binding protein 1 (Homo sapiens, UniProt P11940); test: PABP1 MLLE–PAM2 interaction inhibitors, dose response, miRNA deadenylation inhibitor project, biochemical, fluorescence polarization, Cy5-PAM2 peptide, secondary (AID 602260); format: functional; conditions: read-out: IC50_Mean
T4 sequence (P11940 whole entry): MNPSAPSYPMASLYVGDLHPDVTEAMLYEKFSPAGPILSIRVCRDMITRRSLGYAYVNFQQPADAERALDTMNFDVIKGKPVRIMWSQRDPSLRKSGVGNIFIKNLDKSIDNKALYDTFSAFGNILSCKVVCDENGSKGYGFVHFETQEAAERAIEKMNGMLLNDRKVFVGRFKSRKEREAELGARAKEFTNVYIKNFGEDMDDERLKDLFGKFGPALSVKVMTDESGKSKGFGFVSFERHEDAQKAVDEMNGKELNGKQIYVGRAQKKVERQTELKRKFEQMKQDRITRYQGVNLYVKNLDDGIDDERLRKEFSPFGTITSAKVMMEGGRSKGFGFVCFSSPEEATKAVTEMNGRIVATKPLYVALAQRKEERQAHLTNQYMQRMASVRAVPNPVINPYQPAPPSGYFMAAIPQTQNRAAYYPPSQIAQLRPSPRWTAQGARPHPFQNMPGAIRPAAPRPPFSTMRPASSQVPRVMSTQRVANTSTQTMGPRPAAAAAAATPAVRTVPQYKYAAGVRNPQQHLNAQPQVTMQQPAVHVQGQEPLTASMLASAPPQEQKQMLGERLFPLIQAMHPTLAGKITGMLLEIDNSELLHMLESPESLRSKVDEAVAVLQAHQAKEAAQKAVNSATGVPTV

[11] = molecular target: T4, Polyadenylate-binding protein 1; test: PABP1 MLLE–PAM2 binding inhibitor potency, dose response, biochemical, fluorescence polarization, FITC-PAM2 peptide (AID 602259); format: functional; conditions: read-out: IC50_Mean
[12] = molecular target: Long-chain-fatty-acid--AMP ligase FadD28 (Mycobacterium tuberculosis, UniProt P9WQ59); test: Fluorescence polarization aasay to screen for inhibitors that compete for the binding of FadD28 to a bisubstrate Measured in Biochemical System Using Plate Reader - 2147-01_Inhibitor_Dose_CherryPick_Activity.; format: functional, Mycobacterium tuberculosis H37Rv
Chain of Long-chain-fatty-acid--AMP ligase FadD28 (P9WQ59 whole entry): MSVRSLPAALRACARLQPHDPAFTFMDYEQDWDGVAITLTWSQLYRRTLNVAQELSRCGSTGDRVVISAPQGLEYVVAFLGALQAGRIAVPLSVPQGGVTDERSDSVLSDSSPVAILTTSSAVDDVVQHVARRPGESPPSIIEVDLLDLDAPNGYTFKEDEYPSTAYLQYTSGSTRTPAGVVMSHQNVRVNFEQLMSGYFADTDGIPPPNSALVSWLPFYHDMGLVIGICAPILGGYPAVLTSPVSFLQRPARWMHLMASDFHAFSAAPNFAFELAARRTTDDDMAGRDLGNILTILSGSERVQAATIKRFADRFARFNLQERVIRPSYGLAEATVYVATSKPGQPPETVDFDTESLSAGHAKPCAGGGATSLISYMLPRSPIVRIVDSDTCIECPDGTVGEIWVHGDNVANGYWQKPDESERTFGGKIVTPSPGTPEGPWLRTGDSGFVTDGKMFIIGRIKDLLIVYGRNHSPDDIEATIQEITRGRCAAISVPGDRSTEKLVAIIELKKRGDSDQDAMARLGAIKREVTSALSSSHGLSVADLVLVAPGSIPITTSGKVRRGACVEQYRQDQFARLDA

Chain of DNA damage-inducible transcript 3 protein (P35639 whole entry): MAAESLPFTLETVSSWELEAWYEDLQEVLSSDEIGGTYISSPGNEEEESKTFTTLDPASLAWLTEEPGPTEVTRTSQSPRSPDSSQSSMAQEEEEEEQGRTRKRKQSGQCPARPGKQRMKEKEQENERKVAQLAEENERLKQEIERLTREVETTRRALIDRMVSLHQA

## CCOc1ccc(/C=C/C2=Cc3c(sc(NC(=O)CSc4n[nH]c(N)n4)c3C#N)C(C)(C)C2)cc1
[1]
  IC50: > 100 µM (active)
[2]
  CC50: 8.74 µM (active)
[3]
  Absolute IC50 (CHOP): < 10 µM

## COC(=O)NC(c1ccccc1)C(C(=O)OC)C(=O)OC (configuration not stated)
[4]
  AC50: 5.01 µM (inconclusive)
[5]
  AC50: 3.16 µM (inconclusive)

## CCOC(=O)COc1ccc(C2NC(C(=O)O)CS2)cc1 (configuration not stated)
[6]
  IC50: > 100 µM (not active)

## CCn1c(CSc2nccn2C)nc2cc(C(=O)O)ccc21
[7]
  IC50: 19.7 µM (not active)
[8]
  IC50: 14.9 µM (inactive)
[9]
  IC50: > 50 µM (not active)
[10]
  IC50: 62.1 µM (inactive)
[11]
  IC50: 36.7 µM (inactive)
[12]
  AC50: > 100 µM (inactive)
